Consider one compound from US12257251B2, “Use of FAK inhibitor in preparation of drug for treating tumors having NRAS mutation” (INXMED (NANJING) CO., LTD., priority 2019, dated 2025).

The test system of data set [1] is HT-1080 cells carrying NRAS, CDKN2A and IDH1 gene mutations. The experiment in a line: Mouse model of human fibrosarcoma (cell line HT-1080), subcutaneous tumors: tumor growth. The data set is classed as in vivo. Conditions: for Median tumor volume: day 13; for TGI: day 1 to day 13, from median tumor volumes; for Tumor shrinkage [X/7]: number of animals of 7 with tumor shrinkage. As to the method:
(§1) • 1. Materials and Method: • 1.1. Design of Research • Treatment began when the median tumor volume was between 70-130 mm^3. • 10 mice in the control group, and 7 mice in the treatment group. • Oral gavage once daily. • Control: 0.5% hydroxyethyl cellulose • BI 853520: 50 mg/kg, 25 mg/kg, 12.5 mg/kg, 6 mg/kg, • Tumor volume was measured 3 times a week and body weight was monitored daily. • Evaluation of treatment outcome was based on absolute volume of individual tumors. • Tolerability was assessed based on changes in body weight.
BI853520: synthesized according to the method in the patent WO2010058032. The dry powder was suspended in 0.5% hydroxyethyl cellulose to obtain the desired concentration for each assay. The pH of this formulation was 3.5.
HT-1080 cells: HT-1080 cells carrying NRAS, CDKN2A and IDH1 gene mutations were obtained from ATCC (CRL-121). Cells were grown in T175 tissue culture flasks with DMEM+Glutamax supplemented with 10% heat-inactivated fetal bovine serum as medium. Cells were cultured at 37° C. and 5% CO2 in humidified air.
Mice: Athymic female BomTac, approximately 6-week-old NMRI-Foxn1^nu mice were purchased from Taconic, Denmark. After arriving in the animal room, mice were acclimated to the new environment for at least 3 days before being used for assay. The animals were housed under standard conditions (temperature 21.5±1.5° C. and 55±10% humidity) with 5 mice in each group. A standard diet and autoclaved tap water were provided for ad libitum feeding. A Datamars® T-IS 8010 FDX-B transponder implanted subcutaneously in the neck region and a LabMax® II fixed reader were used to identify each mouse.
To establish subcutaneous tumors, HT-1080 cells were harvested by trypsinization, centrifuged, washed and suspended in ice-cold PBS+1×10^8 cells/ml. Then 100 μl of cell suspension containing 1×10^7 cells was injected subcutaneously into the right flank of nude mice (1 site per mouse). When tumors were established and reached a diameter of 5-8 mm (7 days after cell injection), mice were randomly assigned to the treatment group and the control group.
BI853520 was suspended in 0.5% hydroxyethyl cellulose, which was administered intragastrically through gavage needle every day, and the dosage was 10 mL/Kg.
(§2) Tumor diameters were measured with calipers three times a week (Monday, Wednesday, and Friday). The volume of each tumor [in mm^3] was calculated according to the equation, “tumor volume=length×diameter^2×π/6”. To monitor the side effects of the treatment, the mice were checked daily for abnormalities and their body weights were measured daily. Animals were sacrificed at the end of the study (approximately two weeks after the start of treatment). During the study, animals with tumor necrosis or tumors larger than 2000 mm^3 were sacrificed ahead of schedule for ethical reasons.
At the end of the assay on day 13, statistical evaluation of tumor volume and body weight parameters was performed. Absolute tumor volume and percent change in body weight (referenced to initial weight on day 1) were used. A nonparametric approach was used, and the number of observations, median, minimum and maximum values were calculated. For a quick overview of possible treatment effects, the median tumor volume for each treatment group T and the median tumor volume for the control group C were used to calculate the TGI from day 1 to day d: TGI=100×[(Cd−C1)−(Td−T1)]/(Cd−C1) • wherein, C1, T1=median tumor volume in control and treatment groups at the start of the assay (day 1). • Cd, Td=median tumor volume in control and treatment groups at the end of the assay (day 13).
Each dose of test compound was compared to the control group using a one-sided descending wilcoxon test, taking reduction in tumor volume as a treatment effect and weight loss as a side effect. […]

Data set [2] in a line: Body weight change (tolerability) in the HT-1080 mouse study. Format: in vivo. Conditions: 12.5 mg/kg qd, end of the assay (day 13) versus day 1. As to the method:
as §1, §2
At the end of the assay on day 13, statistical evaluation of tumor volume and body weight parameters was performed. […] A nonparametric approach was used, and the number of observations, median, minimum and maximum values were calculated. […]

Turning to `COc1cc(C(=O)NC2CCN(C)CC2)c(F)cc1Nc1ncc(C(F)(F)F)c(Oc2cccc3c2C(=O)N(C)C3)n1` [BI853520], the figures for the Median tumor volume in data set [1] (6 mg/kg qd oral gavage), in data set [1] (12.5 mg/kg qd oral gavage) and in data set [1] (25 mg/kg qd oral gavage) were 322 mm^3, 149 mm^3 and 15 mm^3, respectively. Further, the TGI in data set [1] (6 mg/kg qd) amounted to 70%; in data set [1] (12.5 mg/kg qd), 94%; in data set [1] (25 mg/kg qd), 113%; in data set [1] (50 mg/kg qd) it was 107%. For the same compound, the “Tumor shrinkage [X/7]” value in data set [1] (6 mg/kg qd) came out at 1 X/7; in data set [1] (12.5 mg/kg qd) it was 2 X/7; in data set [1] (25 mg/kg qd), 6 X/7. Besides, the “Antitumor activity (in words)” value in data set [1] (all dose levels (6 to 50 mg/kg qd)) was “statistically significant antitumor activity”. Moreover, the “Regression (in words)” value in data set [1] (all the treatment groups (6 to 50 mg/kg qd)) was “regression was observed”. This compound also gave a Median weight change in data set [2] of 5.7%.
